pIC50: −log10 of the molar value.
Columns and labels:
[1] = target: GST-fused human Keap1 (amino acid residues: 325-642) protein (Homo sapiens (Human), UniProt Q14145); experiment: FP assay (in vitro): inhibition of binding between Nrf2 and Keap1 by fluorescence polarization; conditions: 20 nM GST-fused human Keap1, 10 nM FITC-labeled Nrf2 peptide, 2 hr at room temperature
[2] = system: NQO1 activity in Hepa1c1c7 cells; experiment: NAD(P)H: quinone oxidoreductase-1 (NQO1) enzyme induction assay (in vitro); assay type: cell-based, mouse; conditions: about 48 hr, ratio from the base without the compound; for fold induction at 0.4 µM: Mus musculus, Hepa-1c1c7, NQO1 activity upon addition of 400 nM of test compound
Method in brief: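 Mouse Hepa1c1c7 hepatoma cells were treated with 400 nM compound for about 48 h, then lysed with digitonin/EDTA. NQO1 activity was measured as menadione-mediated MTT reduction with a G6P/G6PDH NADPH-regenerating system, stopped with dicoumarol, and read at A610. Values are the activity ratio versus untreated base wells.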

Chain of GST-fused human Keap1 (amino acid residues: 325-642) protein (Q14145 325-624 limits assumed): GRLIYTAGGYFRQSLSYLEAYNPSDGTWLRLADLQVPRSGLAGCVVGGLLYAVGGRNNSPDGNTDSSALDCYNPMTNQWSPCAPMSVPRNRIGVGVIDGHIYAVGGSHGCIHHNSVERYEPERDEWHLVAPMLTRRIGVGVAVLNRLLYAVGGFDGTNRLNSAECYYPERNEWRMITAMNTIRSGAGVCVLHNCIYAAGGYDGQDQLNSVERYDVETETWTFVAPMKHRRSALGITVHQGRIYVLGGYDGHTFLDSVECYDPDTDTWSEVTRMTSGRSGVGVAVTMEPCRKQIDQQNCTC

Row | SMILES | pIC50 [1] | fold induction at 0.4 µM [2] | activity ratio ([2]; NQO1 activity upon addition of 400 nM of test compound)
1 | CC[C@@H]1Cc2cccnc2CN(Cc2cc(C(CC(=O)O)c3ccc4c(nnn4C)c3C)cc3ccsc23)C1 (stereo partly drawn) [Example 63, 3-(1,4-Dimethyl-1H-benzotriazol-5-yl)-3-(7-{[(6R)-6-ethyl-5,6,7,9-tetrahydro-8H-pyrido[2,3-c]azepin-8-yl]methyl}-1-benzothiophen-5-yl)propanoic acid] | 6.52 to 7.52 | 3 to 5 | –
2 | Cc1c([C@H](CC(=O)O)c2cc(CN3Cc4nc(O)ccc4CC(C4CC4)C3)c3sccc3c2)cnc2c1nnn2C (single isomer, unassigned) [Example 90, (3R)-3-(7-{[(6R*)-6-Cyclopropyl-2-hydroxy-5,6,7,9-tetrahydro-8H-pyrido[2,3-c]azepin-8-yl]methyl}-1-benzothiophen-5-yl)-3-(3,7-dimethyl-3H-[1,2,3]triazolo[4,5-b]pyridin-6-yl)propanoic acid] | 6.52 to 7.52 | > 5 | –
3 | CC[C@H]1Cc2ccc(O)nc2CN(Cc2cc([C@@H](CC(=O)O)c3ccc4c(nnn4C)c3C)cc3ccsc23)C1 [Example 72, (3R)-3-(1,4-Dimethyl-1H-benzotriazol-5-yl)-3-(7-{[(6S)-6-ethyl-2-hydroxy-5,6,7,9-tetrahydro-8H-pyrido[2,3-c]azepin-8-yl]methyl}-1-benzothiophen-5-yl)propanoic acid] | 6.52 to 7.52 | > 5 | –
4 | Cc1c([C@H](CC(=O)O)c2cc(CN3Cc4nc(O)ccc4CC(C4CC4)C3)c3sccc3c2)ccc2c1nnn2C (single isomer, unassigned) [Example 88, (3R)-3-(7-{[(6S*)-6-Cyclopropyl-2-hydroxy-5,6,7,9-tetrahydro-8H-pyrido[2,3-c]azepin-8-yl]methyl}-1-benzothiophen-5-yl)-3-(1,4-dimethyl-1H-benzotriazol-5-yl)propanoic acid] | 6.52 to 7.52 | > 5 | –
5 | CC[C@H]1Cc2cccnc2CN(Cc2cc([C@@H](CC(=O)O)c3cnc4c(nnn4C)c3C)cc3ccsc23)C1 [Example 75, (3R)-3-(3,7-Dimethyl-3H-[1,2,3]triazolo[4,5-b]pyridin-6-yl)-3-(7-{[(6S)-6-ethyl-5,6,7,9-tetrahydro-8H-pyrido[2,3-c]azepin-8-yl]methyl}-1-benzothiophen-5-yl)propanoic acid] | 7.52 to 8.00 | > 5 | –
6 | Cc1c([C@@H](CC(=O)O)c2cc(CN3Cc4nc(O)ccc4O[C@H](C4CC4)C3)c3sccc3c2)cnc2c1nnn2C [Example 9, (3S)-3-(7-{[(2R)-2-Cyclopropyl-7-hydroxy-2,3-dihydropyrido[2,3-f][1,4]oxazepin-4(5H)-yl]methyl}-1-benzothiophen-5-yl)-3-(3,7-dimethyl-3H-[1,2,3]triazolo[4,5-b]pyridin-6-yl)propanoic acid] | 6.52 to 7.52 | > 5 | –
7 | CC[C@@H]1CN(Cc2cc([C@H](c3cnc4c(nnn4C)c3C)C(C)(C)C(=O)O)cc3ccsc23)Cc2nc(O)ccc2O1 [Example 49, (3R)-3-(3,7-Dimethyl-3H-[1,2,3]triazolo[4,5-b]pyridin-6-yl)-3-(7-{[(2R)-2-ethyl-7-hydroxy-2,3-dihydropyrido[2,3-f][1,4]oxazepin-4(5H)-yl]methyl}-1-benzothiophen-5-yl)-2,2-dimethylpropanoic acid] | 5.52 to 6.52 | 3 to 5 | –
8 | CC[C@@H]1CN(Cc2cc([C@@H](CC(=O)O)c3ccn4c(C)nnc4c3C)cc3ccsc23)Cc2nc(O)ccc2O1 (single isomer, unassigned) [Example 53, (3S*)-3-(3,8-Dimethyl[1,2,4]triazolo[4,3-a]pyridin-7-yl)-3-(7-{[(2R)-2-ethyl-7-hydroxy-2,3-dihydropyrido[2,3-f][1,4]oxazepin-4(5H)-yl]methyl}-1-benzothiophen-5-yl)propanoic acid] | 7.52 to 8.00 | – | B (B: 3<NQO1 activity ratio 5)

Now from value to compound, other results behind:

Row | pIC50 [1] | SMILES | fold induction at 0.4 µM [2] | activity ratio ([2]; NQO1 activity upon addition of 400 nM of test compound)
9 | 7.52 to 8.00 | Cc1c([C@H](CC(=O)O)c2cc(CN3Cc4nc(O)ccc4O[C@H](C(F)(F)F)C3)c3sccc3c2)ccc2c1nnn2C [Example 37, (3R)-3-(1,4-Dimethyl-1H-benzotriazol-5-yl)-3-(7-{[(2S)-7-hydroxy-2-(trifluoromethyl)-2,3-dihydropyrido[2,3-f][1,4]oxazepin-4(5H)-yl]methyl}-1-benzothiophen-5-yl)propanoic acid] | > 5 | –
10 | 7.52 to 8.00 | CC[C@@H]1CN(Cc2cc(C(CC(=O)O)c3ccc4c(nnn4C)c3C)cc3ccsc23)Cc2nc(F)ccc2O1 (stereo partly drawn) [Example 57, 3-(1,4-Dimethyl-1H-benzotriazol-5-yl)-3-(7-{[(2R)-2-ethyl-7-fluoro-2,3-dihydropyrido[2,3-f][1,4]oxazepin-4(5H)-yl]methyl}-1-benzothiophen-5-yl)propanoic acid] | > 5 | –
11 | ≥ 8.00 | CC[C@H]1Cc2ccc(N)nc2CN(Cc2cc([C@@H](CC(=O)O)c3ccc4c(nnn4C)c3C)cc3ccsc23)C1 [Example 83, (3R)-3-(7-{[(6S)-2-Amino-6-ethyl-5,6,7,9-tetrahydro-8H-pyrido[2,3-c]azepin-8-yl]methyl}-1-benzothiophen-5-yl)-3-(1,4-dimethyl-1H-benzotriazol-5-yl)propanoic acid] | > 5 | –
12 | 7.52 to 8.00 | CC[C@@H]1CN(Cc2cc([C@@H](CC(=O)O)c3cc(C4CC4)c4c(nnn4C)c3C)cc3ccsc23)Cc2nc(O)ccc2O1 [Example 35, (3R)-3-(7-Cyclopropyl-1,4-dimethyl-1H-benzotriazol-5-yl)-3-(7-{[(2R)-2-ethyl-7-hydroxy-2,3-dihydropyrido[2,3-f][1,4]oxazepin-4(5H)-yl]methyl}-1-benzothiophen-5-yl)propanoic acid] | > 5 | –
13 | 7.52 to 8.00 | Cc1c(C(CC(=O)O)c2cc(CN3Cc4nc(O)ccc4OC4(CC4)C3)c3sccc3c2)ccn2c(C)nnc12 (stereo not drawn) [Example 54, 3-(3,8-Dimethyl[1,2,4]triazolo[4,3-a]pyridin-7-yl)-3-{7-[(7′-hydroxy-3′H-spiro[cyclopropane-1,2′-pyrido[2,3-f][1,4]oxazepin]-4′(5′H)-yl)methyl]-1-benzothiophen-5-yl}propanoic acid] | 3 to 5 | –
14 | 7.52 to 8.00 | CC[C@@H]1CN(Cc2cc([C@H](CC(=O)O)c3cnc4c(nnn4C)c3C)cc3ccsc23)Cc2nc(O)ccc2O1 [Example 24, (3S)-3-(3,7-Dimethyl-3H-[1,2,3]triazolo[4,5-b]pyridin-6-yl)-3-(7-{[(2R)-2-ethyl-7-hydroxy-2,3-dihydropyrido[2,3-f][1,4]oxazepin-4(5H)-yl]methyl}-1-benzothiophen-5-yl)propanoic acid] | 3 to 5 | –
15 | ≥ 8.00 | CC[C@H]1Cc2ccc(O)nc2CN(Cc2cc([C@H](CC(=O)O)c3ccc4c(nnn4C)c3Cl)cc3ccsc23)C1 [Example 84, (3S)-3-(4-Chloro-1-methyl-1H-benzotriazol-5-yl)-3-(7-{[(6S)-6-ethyl-2-hydroxy-5,6,7,9-tetrahydro-8H-pyrido[2,3-c]azepin-8-yl]methyl}-1-benzothiophen-5-yl)propanoic acid] | > 5 | –
16 | 7.52 to 8.00 | Cc1c([C@@H](CC(=O)O)c2cc(CN3Cc4nc(O)ccc4O[C@H](C4CC4)C3)c3sccc3c2)ccc2c1nnn2C [Example 6, (3S)-3-(7-{[(2R)-2-Cyclopropyl-7-hydroxy-2,3-dihydropyrido[2,3-f][1,4]oxazepin-4(5H)-yl]methyl}-1-benzothiophen-5-yl)-3-(1,4-dimethyl-1H-benzotriazol-5-yl)propanoic acid] | > 5 | –
17 | ≥ 8.00 | CC[C@@H]1CN(Cc2cc([C@H](CC(=O)O)c3cc(OC)c4c(nnn4C)c3C)cc3ccsc23)Cc2nc(O)ccc2O1 [Example 22, (3S)-3-(7-{[(2R)-2-Ethyl-7-hydroxy-2,3-dihydropyrido[2,3-f][1,4]oxazepin-4(5H)-yl]methyl}-1-benzothiophen-5-yl)-3-(7-methoxy-1,4-dimethyl-1H-benzotriazol-5-yl)propanoic acid] | 3 to 5 | –
18 | ≥ 8.00 | Cc1c([C@H](c2cc(CN3Cc4nc(O)ccc4O[C@H](C4CC4)C3)c3sccc3c2)C(C)(C)C(=O)O)ccc2c1nnn2C [Example 14, (3S)-3-(7-{[(2R)-2-Cyclopropyl-7-hydroxy-2,3-dihydropyrido[2,3-f][1,4]oxazepin-4(5H)-yl]methyl}-1-benzothiophen-5-yl)-3-(1,4-dimethyl-1H-benzotriazol-5-yl)-2,2-dimethylpropanoic acid] | > 5 | –
19 | 7.52 to 8.00 | CC[C@@H]1CN(Cc2cc([C@H](CC(=O)O)c3cnc4c(nnn4C)c3C)cc3ccsc23)Cc2nc(N)ccc2O1 [Example 68, (3S)-3-(7-{[(2R)-7-Amino-2-ethyl-2,3-dihydropyrido[2,3-f][1,4]oxazepin-4(5H)-yl]methyl}-1-benzothiophen-5-yl)-3-(3,7-dimethyl-3H-[1,2,3]triazolo[4,5-b]pyridin-6-yl)propanoic acid] | > 5 | –
20 | 7.52 to 8.00 | Cc1c([C@H](c2cc(CN3Cc4nc(O)ccc4OC4(CC4)C3)c3sccc3c2)C(C)(C)C(=O)O)cnc2c1nnn2C [Example 50, (3S)-3-(3,7-Dimethyl-3H-[1,2,3]triazolo[4,5-b]pyridin-6-yl)-3-{7-[(7′-hydroxy-3′H-spiro[cyclopropane-1,2′-pyrido[2,3-f][1,4]oxazepin]-4′(5′H)-yl)methyl]-1-benzothiophen-5-yl}-2,2-dimethylpropanoic acid] | > 5 | –
21 | ≥ 8.00 | CC[C@H]1Cc2cccnc2CN(Cc2cc([C@H](CC(=O)O)c3ccc4c(nnn4C)c3C)cc3ccsc23)C1 [Example 70, (3S)-3-(1,4-Dimethyl-1H-benzotriazol-5-yl)-3-(7-{[(6S)-6-ethyl-5,6,7,9-tetrahydro-8H-pyrido[2,3-c]azepin-8-yl]methyl}-1-benzothiophen-5-yl)propanoic acid] | > 5 | –
